Species: Rattus norvegicus
Test: Open TG-GATES - Regimen: Single
Format: toxicity, organism-based, Sprague-Dawley
Set-up: regimen Single, gender Male, age 6 weeks
Conditions: in vivo, iv, 0 mg/kg, route intravenous injection, dose level Control; for APTT / Bas / Eos / Fbg / Hb / Ht / Lym / MCH / MCHC / MCV / Mono / Neu / PT / Plat / RBC / Ret / WBC: tissue Blood; for KIDNEY_L / KIDNEY_R / KIDNEY_TOTAL: tissue Kidney; for LIVER: tissue Liver; for A/G / ALP / ALT / AST / BUN / CRE / Ca / Cl / DBIL / GLC / IP / K / LDH / Na / PL / RALB / TBIL / TC / TG / TP / gamma-GTP: tissue Plasma

`C[C@@H]1[C@H](O)[C@@H](C)/C=C/C=C/C=C/C=C/C=C/C=C/C=C/[C@H](O[C@@H]2O[C@H](C)[C@@H](O)[C@H](N)[C@@H]2O)C[C@@H]2O[C@](O)(C[C@@H](O)C[C@@H](O)[C@H](O)CC[C@@H](O)C[C@@H](O)CC(=O)O[C@H]1C)C[C@H](O)[C@H]2C(=O)O` [AMPHOTERICIN B] showed a TERMINAL_BW (3 h) of 219.1 g, an APTT (3 h) of 17.6 s and a Bas (3 h) of 0%. The Eos (3 h) was 0.6%, the Fbg (3 h) was 275.4 mg/dL and the Hb (3 h) was 13.2 g/dL. The Ht (3 h) was 39.1%, the Lym (3 h) was 78.4% and the MCH (3 h) was 20.8 pg. It also gave an MCHC (3 h) of 33.9%, an MCV (3 h) of 61.3 fL and a Mono (3 h) of 2.6%. The Neu (3 h) was 17.2%, the PT (3 h) was 13.1 s and the Plat (3 h) was 131.5 x10_4/uL. It also gave an RBC (3 h) of 638.4 x10_4/ul, a Ret (3 h) of 7% and a WBC (3 h) of 102.7 x10_2/uL. The KIDNEY_L (3 h) was 0.9 g, the KIDNEY_R (3 h) was 1 g and the KIDNEY_TOTAL (3 h) was 1.9 g. The LIVER (3 h) was 9.9 g, the A/G (3 h) was 0.8 and the ALP (3 h) was 1671 IU/L. It also gave an ALT (3 h) of 40.4 IU/L, an AST (3 h) of 86 IU/L and a BUN (3 h) of 11.4 mg/dL. For the same molecule, the CRE (3 h) was 0.2 mg/dL, the Ca (3 h) was 11 mg/dL and the Cl (3 h) was 106.2 meq/L. The DBIL (3 h) was 0.02 mg/dL, the GLC (3 h) was 167.2 mg/dL and the IP (3 h) was 8.3 mg/dL. The K (3 h) was 3.9 meq/L, the LDH (3 h) was 67 IU/L and the Na (3 h) was 142 meq/L. For the same molecule, the PL (3 h) was 130.4 mg/dL, the RALB (3 h) was 2.5 g/dL and the TBIL (3 h) was 0.066 mg/dL. The TC (3 h) was 75.4 mg/dL, the TG (3 h) was 58.8 mg/dL and the TP (3 h) was 5.5 g/dL. For the same molecule, the gamma-GTP (3 h) was 1.6 IU/L, the TERMINAL_BW (6 h) was 212 g and the APTT (6 h) was 17 s. The Bas (6 h) was 0%, the Eos (6 h) was 0.8% and the Fbg (6 h) was 271.2 mg/dL. For the same molecule, the Hb (6 h) was 13.4 g/dL, the Ht (6 h) was 39.9% and the Lym (6 h) was 77.2%. For the same molecule, the MCH (6 h) was 21.1 pg, the MCHC (6 h) was 33.6% and the MCV (6 h) was 62.6 fL. The Mono (6 h) was 1.8%, the Neu (6 h) was 19.6% and the PT (6 h) was 13.1 s. The Plat (6 h) was 129.4 x10_4/uL, the RBC (6 h) was 637.4 x10_4/ul and the Ret (6 h) was 8.6%. The WBC (6 h) was 90.4 x10_2/uL, the KIDNEY_L (6 h) was 0.9 g and the KIDNEY_R (6 h) was 0.9 g. For the same molecule, the KIDNEY_TOTAL (6 h) was 1.9 g, the LIVER (6 h) was 8.8 g and the A/G (6 h) was 0.8. It also gave an ALP (6 h) of 1553.8 IU/L, an ALT (6 h) of 35.6 IU/L and an AST (6 h) of 68 IU/L. It also gave a BUN (6 h) of 8.4 mg/dL, a CRE (6 h) of 0.1 mg/dL and a Ca (6 h) of 10.6 mg/dL. For the same molecule, the Cl (6 h) was 105 meq/L, the DBIL (6 h) was 0.014 mg/dL and the GLC (6 h) was 182.2 mg/dL. For the same molecule, the IP (6 h) was 9.9 mg/dL, the K (6 h) was 3.9 meq/L and the LDH (6 h) was 50.8 IU/L. The Na (6 h) was 142 meq/L, the PL (6 h) was 125.8 mg/dL and the RALB (6 h) was 2.5 g/dL. The TBIL (6 h) was 0.064 mg/dL, the TC (6 h) was 76.2 mg/dL and the TG (6 h) was 46.8 mg/dL. The TP (6 h) was 5.5 g/dL, the gamma-GTP (6 h) was 1.6 IU/L and the TERMINAL_BW (9 h) was 208.7 g. For the same molecule, the APTT (9 h) was 17.4 s, the Bas (9 h) was 0% and the Eos (9 h) was 1%. The Fbg (9 h) was 281.4 mg/dL, the Hb (9 h) was 13.4 g/dL and the Ht (9 h) was 39.1%. The Lym (9 h) was 71.8%, the MCH (9 h) was 21.1 pg and the MCHC (9 h) was 34.2%. It also gave an MCV (9 h) of 61.6 fL, a Mono (9 h) of 1.8% and a Neu (9 h) of 24.4%. For the same molecule, the PT (9 h) was 13.2 s, the Plat (9 h) was 136.6 x10_4/uL and the RBC (9 h) was 635 x10_4/ul. For the same molecule, the Ret (9 h) was 8.1%, the WBC (9 h) was 80.2 x10_2/uL and the KIDNEY_L (9 h) was 0.9 g. It also gave a KIDNEY_R (9 h) of 0.9 g, a KIDNEY_TOTAL (9 h) of 1.8 g and an LIVER (9 h) of 8.3 g. It also gave an A/G (9 h) of 0.8, an ALP (9 h) of 1611.8 IU/L and an ALT (9 h) of 30.6 IU/L. The AST (9 h) was 67.6 IU/L, the BUN (9 h) was 8.6 mg/dL and the CRE (9 h) was 0.1 mg/dL. It also gave a Ca (9 h) of 10.6 mg/dL, a Cl (9 h) of 106.4 meq/L and a DBIL (9 h) of 0.018 mg/dL. The GLC (9 h) was 170.2 mg/dL, the IP (9 h) was 9.7 mg/dL and the K (9 h) was 3.7 meq/L. For the same molecule, the LDH (9 h) was 54.8 IU/L, the Na (9 h) was 142.2 meq/L and the PL (9 h) was 120.8 mg/dL. The RALB (9 h) was 2.5 g/dL, the TBIL (9 h) was 0.068 mg/dL and the TC (9 h) was 72.6 mg/dL. The TG (9 h) was 43.8 mg/dL, the TP (9 h) was 5.6 g/dL and the gamma-GTP (9 h) was 1.8 IU/L. For the same molecule, the TERMINAL_BW (24 h) was 228.2 g, the APTT (24 h) was 15.8 s and the Bas (24 h) was 0.2%. For the same molecule, the Eos (24 h) was 1%, the Fbg (24 h) was 302.6 mg/dL and the Hb (24 h) was 13 g/dL. For the same molecule, the Ht (24 h) was 38.7%, the Lym (24 h) was 78.8% and the MCH (24 h) was 20.9 pg. For the same molecule, the MCHC (24 h) was 33.6%.
